From ChEMBL document CHEMBL1139671, “Nuphar alkaloids with immediately apoptosis-inducing activity from Nuphar pumilum and their structural requirements for the activity” (2006)
Activity calls are given as the source filed them. The rule behind the calls is not given here.

How the values were obtained:
U-937 [1] = assay: Cytotoxicity against U937 cells at 10 uM after 48 hrs; assay type: functional; conditions: Homo sapiens, U-937, 48 h
HT-1080 [2] = assay: Cytotoxicity against HT1080 cells at 10 uM after 24 hrs; assay type: functional; conditions: Homo sapiens, HT-1080, 24 h
B16-F10 [3] = assay: Cytotoxicity against B16F10 cells at 1.0 uM after 48 hrs; assay type: functional; conditions: Mus musculus, B16-F10, 48 h
U-937 [4] = assay: Cytotoxicity against U937 cells at 1.0 uM after 48 hrs; assay type: functional; conditions: Homo sapiens, U-937, 48 h
B16-F10 [5] = assay: Cytotoxicity against B16F10 cells at 10 uM after 24 hrs; assay type: functional; conditions: Mus musculus, B16-F10, 24 h
U-937 [6] = assay: Cytotoxicity against U937 cells at 1.0 uM after 24 hrs; assay type: functional; conditions: Homo sapiens, U-937, 24 h
HT-1080 [7] = assay: Cytotoxicity against HT1080 cells at 1.0 uM after 72 hrs; assay type: functional; conditions: Homo sapiens, HT-1080, 72 h
B16-F10 [8] = assay: Cytotoxicity against B16F10 cells at 10 uM after 72 hrs; assay type: functional; conditions: Mus musculus, B16-F10, 72 h
HT-1080 [9] = assay: Cytotoxicity against HT1080 cells at 1.0 uM after 24 hrs; assay type: functional; conditions: Homo sapiens, HT-1080, 24 h
B16-F10 [10] = assay: Cytotoxicity against B16F10 cells at 10 uM after 48 hrs; assay type: functional; conditions: Mus musculus, B16-F10, 48 h
HT-1080 [11] = assay: Cytotoxicity against HT1080 cells at 1.0 uM after 48 hrs; assay type: functional; conditions: Homo sapiens, HT-1080, 48 h
U-937 [12] = assay: Cytotoxicity against U937 cells at 10 uM after 72 hrs; assay type: functional; conditions: Homo sapiens, U-937, 72 h
HT-1080 [13] = assay: Cytotoxicity against HT1080 cells at 10 uM after 72 hrs; assay type: functional; conditions: Homo sapiens, HT-1080, 72 h
HT-1080 [14] = assay: Cytotoxicity against HT1080 cells at 10 uM after 48 hrs; assay type: functional; conditions: Homo sapiens, HT-1080, 48 h
HT-1080 [15] = assay: Cytotoxicity against HT1080 cells at 0.1 uM after 48 hrs; assay type: functional; conditions: Homo sapiens, HT-1080, 48 h
U-937 [16] = assay: Cytotoxicity against U937 cells at 1.0 uM after 72 hrs; assay type: functional; conditions: Homo sapiens, U-937, 72 h
B16-F10 [17] = assay: Cytotoxicity against B16F10 cells at 0.1 uM after 48 hrs; assay type: functional; conditions: Mus musculus, B16-F10, 48 h
B16-F10 [18] = assay: Cytotoxicity against B16F10 cells at 1.0 uM after 72 hrs; assay type: functional; conditions: Mus musculus, B16-F10, 72 h
HT-1080 [19] = assay: Cytotoxicity against HT1080 cells at 0.1 uM after 72 hrs; assay type: functional; conditions: Homo sapiens, HT-1080, 72 h
B16-F10 [20] = assay: Cytotoxicity against B16F10 cells at 0.1 uM after 72 hrs; assay type: functional; conditions: Mus musculus, B16-F10, 72 h
U-937 [21] = assay: Cytotoxicity against U937 cells at 10 uM after 24 hrs; assay type: functional; conditions: Homo sapiens, U-937, 24 h
U-937 [22] = assay: Induction of apoptosis in U937 cells by DNA fragmentation assay; assay type: functional, cell-based; conditions: Homo sapiens
HT-1080 [23] = assay: Cytotoxicity against HT1080 cells at 0.1 uM after 24 hrs; assay type: functional; conditions: Homo sapiens, HT-1080, 24 h
B16-F10 [24] = assay: Cytotoxicity against B16F10 cells at 1.0 uM after 24 hrs; assay type: functional; conditions: Mus musculus, B16-F10, 24 h
B16-F10 [25] = assay: Cytotoxicity against B16F10 cells at 0.03 uM after 72 hrs; assay type: functional; conditions: Mus musculus, B16-F10, 72 h
U-937 [26] = assay: Cytotoxicity against U937 cells at 0.1 uM after 24 hrs; assay type: functional; conditions: Homo sapiens, U-937, 24 h
B16-F10 [27] = assay: Cytotoxicity against B16F10 cells at 0.03 uM after 48 hrs; assay type: functional; conditions: Mus musculus, B16-F10, 48 h
B16-F10 [28] = assay: Cytotoxicity against B16F10 cells at 0.1 uM after 24 hrs; assay type: functional; conditions: Mus musculus, B16-F10, 24 h
HT-1080 [29] = assay: Cytotoxicity against HT1080 cells at 0.03 uM after 24 hrs; assay type: functional; conditions: Homo sapiens, HT-1080, 24 h
U-937 [30] = assay: Cytotoxicity against U937 cells at 0.03 uM after 48 hrs; assay type: functional; conditions: Homo sapiens, U-937, 48 h
HT-1080 [31] = assay: Cytotoxicity against HT1080 cells at 0.03 uM after 72 hrs; assay type: functional; conditions: Homo sapiens, HT-1080, 72 h
HT-1080 [32] = assay: Cytotoxicity against HT1080 cells at 0.03 uM after 48 hrs; assay type: functional; conditions: Homo sapiens, HT-1080, 48 h
B16-F10 [33] = assay: Cytotoxicity against B16F10 cells at 0.03 uM after 24 hrs; assay type: functional; conditions: Mus musculus, B16-F10, 24 h
U-937 [34] = assay: Cytotoxicity against U937 cells at 0.1 uM after 48 hrs; assay type: functional; conditions: Homo sapiens, U-937, 48 h
U-937 [35] = assay: Cytotoxicity against U937 cells at 0.1 uM after 72 hrs; assay type: functional; conditions: Homo sapiens, U-937, 72 h
U-937 [36] = assay: Cytotoxicity against U937 cells at 0.03 uM after 72 hrs; assay type: functional; conditions: Homo sapiens, U-937, 72 h
U-937 [37] = assay: Cytotoxicity against U937 cells at 0.03 uM after 24 hrs; assay type: functional; conditions: Homo sapiens, U-937, 24 h

Structure (SMILES)	inhibition at 10 µM (U-937 [1]) [%]	inhibition at 10 µM (HT-1080 [2]) [%]	inhibition at 1 µM (B16-F10 [3]) [%]	inhibition at 1 µM (U-937 [4]) [%]	inhibition at 10 µM (B16-F10 [5]) [%]	inhibition at 1 µM (U-937 [6]) [%]	inhibition at 1 µM (HT-1080 [7]) [%]	inhibition at 10 µM (B16-F10 [8]) [%]	inhibition at 1 µM (HT-1080 [9]) [%]	inhibition at 10 µM (B16-F10 [10]) [%]	inhibition at 1 µM (HT-1080 [11]) [%]	inhibition at 10 µM (U-937 [12]) [%]	inhibition at 10 µM (HT-1080 [13]) [%]	inhibition at 10 µM (HT-1080 [14]) [%]	inhibition at 0.1 µM (HT-1080 [15]) [%]	inhibition at 1 µM (U-937 [16]) [%]	inhibition at 0.1 µM (B16-F10 [17]) [%]	inhibition at 1 µM (B16-F10 [18]) [%]	inhibition at 0.1 µM (HT-1080 [19]) [%]	inhibition at 0.1 µM (B16-F10 [20]) [%]	other results
C[C@@H]1CC[C@@H](c2ccoc2)N2C[C@@]3(CC[C@@H]12)CS[C@@]1(CC[C@H]2[C@H](C)CC[C@@H](c4ccoc4)N2[C@@H]1O)C3	92.5	96.1	27.3	1.3	88.6	3.6	15.7	98.7	14	97.3	8.3	94.3	99.2	97.5	1.6	-1	10.3	20.8	5.4	11.1	inhibition at 10 µM (U-937 [21]): 83.2%; Activity (U-937 [22]): Active; inhibition at 0.1 µM (HT-1080 [23]): 1.8%
C[C@@H]1CC[C@@H](c2ccoc2)N2C[C@@]3(CC[C@@H]12)CS[C@]1(CC[C@H]2[C@H](C)CC[C@@H](c4ccoc4)N2[C@@H]1O)C3 [6-HYDROXYTHIONUPHLUTINE B]	91.3	95.9	65	89	91.5	74.6	63.5	99.1	42	98.2	53.3	94.1	98.7	98	8.6	85.3	0.3	69.3	1	0.9	inhibition at 1 µM (B16-F10 [24]): -22.9%; inhibition at 10 µM (U-937 [21]): 80%; inhibition at 0.1 µM (HT-1080 [23]): 6.3%
CC[C@@]1(O)C(=O)OCc2c1cc1n(c2=O)Cc2cc3ccccc3nc2-1 [CAMPTOTHECIN]	98.2	62	83.2	94.6	60.6	75.8	65.8	98.1	49.5	94.7	77	98	93.8	93.1	-11.7	98.2	39.1	93.5	5.4	76.9	inhibition at 0.03 µM (B16-F10 [25]): 33.4%; inhibition at 0.1 µM (U-937 [26]): 46%; inhibition at 0.03 µM (B16-F10 [27]): 7.5%; inhibition at 0.1 µM (B16-F10 [28]): 16.2%; inhibition at 0.03 µM (HT-1080 [29]): -3.8%; inhibition at 0.03 µM (U-937 [30]): 61.9%; inhibition at 0.03 µM (HT-1080 [31]): -3.2%; inhibition at 0.03 µM (HT-1080 [32]): -7.1%; inhibition at 0.03 µM (B16-F10 [33]): -1.9%; inhibition at 0.1 µM (U-937 [34]): 90.6%; inhibition at 0.1 µM (U-937 [35]): 95.3%; inhibition at 0.03 µM (U-937 [36]): 78.5%; inhibition at 0.03 µM (U-937 [37]): 7.1%; inhibition at 1 µM (B16-F10 [24]): 47.8%; inhibition at 10 µM (U-937 [21]): 75%; inhibition at 0.1 µM (HT-1080 [23]): -0.4%
